{"source": "paper PMC3005307", "about": "(Chemistry & biology, 2010)", "key": {"[1]": {"system": "TcdB holotoxin", "type": "cell-based, human"}, "[2]": {"molecular_target": "TcdB CPD (Clostridioides difficile, UniProt P18177)", "sequence (P18177 1-804 limits assumed)": "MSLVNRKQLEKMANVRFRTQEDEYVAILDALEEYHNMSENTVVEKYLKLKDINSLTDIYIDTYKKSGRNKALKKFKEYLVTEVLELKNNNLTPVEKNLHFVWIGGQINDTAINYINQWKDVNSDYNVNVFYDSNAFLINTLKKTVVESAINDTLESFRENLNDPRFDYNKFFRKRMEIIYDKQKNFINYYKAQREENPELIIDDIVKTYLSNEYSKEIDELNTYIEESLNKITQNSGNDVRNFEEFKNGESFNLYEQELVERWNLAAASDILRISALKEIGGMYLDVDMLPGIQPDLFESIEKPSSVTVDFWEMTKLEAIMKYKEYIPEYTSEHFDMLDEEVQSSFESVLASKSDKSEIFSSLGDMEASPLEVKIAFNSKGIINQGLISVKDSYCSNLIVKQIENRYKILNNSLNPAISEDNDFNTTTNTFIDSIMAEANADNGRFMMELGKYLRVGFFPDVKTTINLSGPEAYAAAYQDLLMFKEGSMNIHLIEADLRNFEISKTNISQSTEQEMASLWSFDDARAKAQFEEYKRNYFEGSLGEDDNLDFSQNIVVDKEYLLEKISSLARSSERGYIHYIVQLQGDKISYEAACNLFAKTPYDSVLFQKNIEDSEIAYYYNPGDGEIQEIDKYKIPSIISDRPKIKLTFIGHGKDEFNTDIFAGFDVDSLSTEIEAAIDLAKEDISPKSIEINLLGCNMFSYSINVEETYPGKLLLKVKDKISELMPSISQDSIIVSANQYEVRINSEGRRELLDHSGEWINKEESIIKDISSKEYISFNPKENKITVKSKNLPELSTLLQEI", "type": "biochemical, Clostridium difficile", "details": "autocleavage assay"}, "[3]": {"system": "TcdB holotoxin", "type": "cell-based, human", "remark": "listed apart in the source"}}, "note": "“Also recorded” adds a separate entry of the source.", "data": [{"substance": "JPM-OEt", "values": [{"measurement": "effect on holotoxin-mediated cell rounding", "setting": "[1]", "result": "failed to inhibit toxin function; also recorded: no effect on toxin function"}, {"measurement": "inhibition of CPD activity", "setting": "[2]", "result": "poorly inhibit CPD activity"}, {"measurement": "effect on Rac1 glucosylation by holotoxin", "setting": "[3]", "result": "no effect on toxin function"}]}]}
